Like-named read-outs stand apart in the source and are kept apart here.
Assays:
Caco-2 cells [1] = assay: Bidirectional permeability assay in Caco-2 cells; details: 3 μM, pH 7.4, 0.5% BSA, 2 hours at 37° C.; for Caco-2 AB: apical-to-basolateral Pc
Caco-2 cells [2] = details: human, Caco-2, 2 h, 3 μM, pH 7.4
[3] = system: IFNα-induced pSTAT5 in human whole blood (CD3 positive population); assay: IFNα-induced STAT phosphorylation in human whole blood; format: cell-based; details: 1 h compound incubation, 1000 U/mL IFNα A/D for 15 min, CD3+ gate, read-out: Human Whole blood IFNa pSTAT5 IC50
Method: After an hour long incubation with compound, human whole blood (drawn with ACD-A as anticoagulant) was stimulated with 1000 U/mL recombinant human IFNα A/D (R&D Systems 11200-2) for 15 min. The stimulation was stopped by adding Fix/Lyse buffer (BD 558049). Cells were stained with a CD3 FITC antibody (BD 555916), washed, and permeabilized on ice using Perm III buffer (BD 558050). Cells were then stained with an Alexa-Fluor 647 pSTAT5 (pY694) antibody (BD 612599) for 60 min prior to analysis on the iQue Plus. The amount of pSTAT5 expression was quantitated by median fluorescence intensity after gating on the CD3 positive population.

in vitro = details: human, Caco-2, pH 7.4

[2H]C([2H])([2H])NC(=O)c1cnc(N2CCN(C(F)(F)F)C2=O)cc1Nc1cccc(-c2cnn(C)n2)c1OC [Example 6, 4-{[2-methoxy-3-(2-methyl-2H-1,2,3-triazol-4-yl)phenyl]amino}-N-(^2H3)methyl-6-[2-oxo-3-(trifluoromethyl)imidazolidin-1-yl]pyridine-3-carboxamide]
Caco-2 efflux ratio (Caco-2 cells [1]): 0.6
Caco-2 AB (Caco-2 cells [1]): 118 nm/s

[2H]C([2H])([2H])NC(=O)c1nnc(N2CCN(C3CCC3)C2=O)cc1Nc1nccc(-c2cnn(C)n2)c1OC [Example 7, 6-(3-cyclobutyl-2-oxoimidazolidin-1-yl)-4-{[3-methoxy-4-(2-methyl-2H-1,2,3-triazol-4-yl)pyridin-2-yl]amino}-N-(^2H3)methylpyridazine-3-carboxamide]
Caco-2 AB (Caco-2 cells [2]): 139 nm/s

CNC(=O)c1cnc(N2CCN(C(C)C)C2=O)cc1Nc1nccc(-c2cnn(C)n2)c1OC [Example 2, 4-{[3-methoxy-4-(2-methyl-2H-1,2,3-triazol-4-yl)pyridin-2-yl]amino}-N-(^2H3)methyl-6-[2-oxo-3-(propan-2-yl)imidazolidin-1-yl]pyridine-3-carboxamide]
IC50 [3]: 0.026 µM

[2H]C([2H])([2H])NC(=O)c1cnc(N2CCN(C(C)C)C2=O)cc1Nc1cccc(-c2cnn(C)n2)c1OC [Example 3, 4-{[2-methoxy-3-(2-methyl-2H-1,2,3-triazol-4-yl)phenyl]amino}-N-(^2H3)methyl-6-[2-oxo-3-(propan-2-yl)imidazolidin-1-yl]pyridine-3-carboxamide]
Caco-2 efflux ratio (Caco-2 cells [1]): 0.7
Caco-2 AB (Caco-2 cells [1]): 287 nm/s

CNC(=O)c1cnc(N2CCN(C(C)C)C2=O)cc1Nc1cccc(-c2cnn(C)n2)c1OC [Example 3, 4-{[2-methoxy-3-(2-methyl-2H-1,2,3-triazol-4-yl)phenyl]amino}-N-(^2H3)methyl-6-[2-oxo-3-(propan-2-yl)imidazolidin-1-yl]pyridine-3-carboxamide]
IC50 [3]: 0.077 µM

CNC(=O)c1cnc(N2CCN(C(F)(F)F)C2=O)cc1Nc1cccc(-c2cnn(C)n2)c1OC [Example 6, 4-{[2-methoxy-3-(2-methyl-2H-1,2,3-triazol-4-yl)phenyl]amino}-N-(^2H3)methyl-6-[2-oxo-3-(trifluoromethyl)imidazolidin-1-yl]pyridine-3-carboxamide]
IC50 [3]: 0.8 µM

[2H]C([2H])([2H])NC(=O)c1cnc(N2CCN(C(C)C)C2=O)cc1Nc1nccc(-c2cnn(C)n2)c1OC [Example 2, 4-{[3-methoxy-4-(2-methyl-2H-1,2,3-triazol-4-yl)pyridin-2-yl]amino}-N-(^2H3)methyl-6-[2-oxo-3-(propan-2-yl)imidazolidin-1-yl]pyridine-3-carboxamide]
Caco-2 efflux ratio (Caco-2 cells [1]): 1.4
Caco-2 AB (Caco-2 cells [1]): 233 nm/s

[2H]C([2H])([2H])NC(=O)c1nnc(N2CCN(C3CC3)C2=O)cc1Nc1nccc(-c2cnn(C)n2)c1OC [Example 4, 6-(3-cyclopropyl-2-oxoimidazolidin-1-yl)-4-{[3-methoxy-4-(2-methyl-2H-1,2,3-triazol-4-yl)pyridin-2-yl]amino}-N-(^2H3)methylpyridazine-3-carboxamide]
Caco-2 AB (Caco-2 cells [2]): 576 nm/s

[2H]C([2H])([2H])NC(=O)c1nnc(N2CCN(C3CC3)C2=O)cc1Nc1cccc(-c2cnn(C)n2)c1OC [Example 5, 6-(3-cyclopropyl-2-oxoimidazolidin-1-yl)-4-{[2-methoxy-3-(2-methyl-2H-1,2,3-triazol-4-yl)phenyl]amino}-N-(^2H3)methylpyridazine-3-carboxamide]
Caco-2 AB (Caco-2 cells [2]): 361 nm/s

CNC(=O)c1nnc(N2CCN(C3CC3)C2=O)cc1Nc1cccc(-c2cnn(C)n2)c1OC [Example 5, 6-(3-cyclopropyl-2-oxoimidazolidin-1-yl)-4-{[2-methoxy-3-(2-methyl-2H-1,2,3-triazol-4-yl)phenyl]amino}-N-(^2H3)methylpyridazine-3-carboxamide]
IC50 [3]: 0.095 µM

[2H]C([2H])([2H])NC(=O)c1nnc(N2CCN(C(C)C)C2=O)cc1Nc1nc(C)cc(-c2cnn(C)n2)c1OC [Example 8, 6-(3-isopropyl-2-oxoimidazolidin-1-yl)-4-((3-methoxy-6-methyl-4-(2-methyl-2H-1,2,3-triazol-4-yl)pyridin-2-yl)amino)-N-(methyl-d3)pyridazine-3-carboxamide]
IC50 [3]: 0.383 µM
Papp A→B at 2 h, 3 μM (in vitro): 154 nm/s
efflux ratio at 2 h, 3 μM (in vitro): 0.3

[2H]C([2H])([2H])NC(=O)c1nnc(N2CCN(C3CC3)C2=O)cc1Nc1nc(C)cc(-c2cnn(C)n2)c1OC [Example 9, 6-(3-cyclopropyl-2-oxoimidazolidin-1-yl)-4-((3-methoxy-6-methyl-4-(2-methyl-2H-1,2,3-triazol-4-yl)pyridin-2-yl)amino)-N-(methyl-d3)pyridazine-3-carboxamide]
IC50 [3]: 0.141 µM
Papp A→B at 2 h, 3 μM (in vitro): 137 nm/s
efflux ratio at 2 h, 3 μM (in vitro): 0.2

CNC(=O)c1nnc(N2CCN(C3CC3)C2=O)cc1Nc1nccc(-c2cnn(C)n2)c1OC [Example 4, 6-(3-cyclopropyl-2-oxoimidazolidin-1-yl)-4-{[3-methoxy-4-(2-methyl-2H-1,2,3-triazol-4-yl)pyridin-2-yl]amino}-N-(^2H3)methylpyridazine-3-carboxamide]
IC50 [3]: 0.026 µM

CNC(=O)c1nnc(N2CCN(C3CCC3)C2=O)cc1Nc1nccc(-c2cnn(C)n2)c1OC [Example 7, 6-(3-cyclobutyl-2-oxoimidazolidin-1-yl)-4-{[3-methoxy-4-(2-methyl-2H-1,2,3-triazol-4-yl)pyridin-2-yl]amino}-N-(^2H3)methylpyridazine-3-carboxamide]
IC50 [3]: 0.047 µM
